Test results published in US20230011869A1 (Hoffmann-La Roche Inc., priority 2018, published 2023).
Counter-ions that a name gives are not always drawn. Like-named read-outs stand apart in the source and are kept apart here.

Test system: Acinetobacter baumannii ATCC17961
Assay: Antimicrobial susceptibility testing: 90% growth inhibitory concentration (IC90) determination, Iso-Sensitest broth
Format: cell-based
Conditions: read-out: ATCC17961 IC90
Method in brief: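 Twofold serial dilutions (e.g. 50 to 0.097 μM final) in Iso-Sensitest broth, inoculum 5×10^(5) CFU/ml, incubated at 35±2° C. OD600 read every 20 minutes over 16 h; IC90 derived from growth inhibition during logarithmic phase.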

[1] = Acinetobacter baumannii, ATCC17961, 16 h
[2] = Acinetobacter baumannii, ATCC17961, 16 h, 90% growth inhibitory concentration, Acinetobacter baumannii ATCC17961, Iso-Sensitest broth, OD 600 nm over 16 h
[3] = 90% growth inhibitory concentration, Acinetobacter baumannii ATCC17961, Iso-Sensitest broth, OD 600 nm over 16 h

SMILES	IC90 [2]	IC90 [1]	further results
CCc1cc(Nc2nccn3c(-c4ccc(OC(F)F)c(F)c4F)cnc23)ccc1C(=O)N1CCC(C(=O)NCC2CCNC2)CC1 (centres unmarked) [Example 590, 1-(4-((3-(4-(difluoromethoxy)-2,3-difluorophenyl)imidazo[1,2-a]pyrazin-8-yl)amino)-2-ethylbenzoyl)-N-(pyrrolidin-3-ylmethyl)piperidine-4-carboxamide 2,2,2-trifluoroacetate formate]		30 nM	
CCc1cc(Nc2nccn3c(-c4ccc(OC(F)F)c(F)c4F)cnc23)ccc1C(=O)N1CCC(C(=O)N2C[C@H]3C[C@@H](C2)N3)CC1 [Example 589, (4-(3,6-diazabicyclo[3.1.1]heptane-3-carbonyl)piperidin-1-yl)(4-((3-(4-(difluoromethoxy)-2,3-difluorophenyl)imidazo[1,2-a]pyrazin-8-yl)amino)-2-ethylphenyl)methanone formate]	59 nM		
COc1ccc(-c2cnc3c(Nc4ccc(C(=O)N5CCN(C(=O)[C@@]6(O)CNCC[C@@H]6O)CC5)c(C)c4)nccn23)c(F)c1F [Example 287, [4-[[3-(2,3-difluoro-4-methoxyphenyl)imidazo[1,2-a]pyrazin-8-yl]amino]-2-methylphenyl]-[4-[(3R,4S)-3,4-dihydroxypiperidine-3-carbonyl]piperazin-1-yl]methanone]	80 nM		
Cc1cc(Nc2nccn3c(-c4ccc(OCC#N)c(F)c4Cl)cnc23)ccc1C(=O)N1CCN(C(=O)[C@@H]2C[C@@H](O)CN2)CC1 [Example 251, 2-[3-chloro-2-fluoro-4-[8-[4-[4-[(2S,4R)-4-hydroxypyrrolidine-2-carbonyl]piperazine-1-carbonyl]-3-methylanilino]imidazo[1,2-a]pyrazin-3-yl]phenoxy]acetonitrile]			IC90 [3]: 80 nM
COc1ccc(-c2cnc3c(Nc4ccc(C(=O)N5CCN(C(=O)[C@]6(O)CNCC[C@H]6O)CC5)c(C)c4)nccn23)c(F)c1F [Example 288, [4-[[3-(2,3-difluoro-4-methoxyphenyl)imidazo[1,2-a]pyrazin-8-yl]amino]-2-methylphenyl]-[4-[(3S,4R)-3,4-dihydroxypiperidine-3-carbonyl]piperazin-1-yl]methanone; hydrochloride]		88 nM	
Cc1cc(Nc2nccn3c(-c4ccc(OCC#N)c(F)c4F)cnc23)ccc1C(=O)N1CCN(C(=O)[C@@H]2C[C@@H](O)CN2)CC1 [Example 200, 2-[2,3-difluoro-4-[8-[4-[4-[(2S,4R)-4-hydroxypyrrolidine-2-carbonyl]piperazine-1-carbonyl]-3-methyl-anilino]imidazo[1,2-a]pyrazin-3-yl]phenoxy] acetonitrile formate]	67 nM		
COc1ccc(-c2cnc3c(Nc4ccc(C(=O)N5CCN(C(=O)[C@@H]6C[C@@](C)(O)CN6)CC5)c(C)c4)nccn23)cc1F [Example 463, [4-[[3-(3-fluoro-4-methoxyphenyl)imidazo[1,2-a]pyrazin-8-yl]amino]-2-methylphenyl]-[4-[(2S,4R)-4-hydroxy-4-methylpyrrolidine-2-carbonyl]piperazin-1-yl]methanone; formic acid]		132 nM	
C#CCOc1ccc(-c2cnc3c(Nc4ccc(C(=O)N5CCN(C(=O)[C@@H]6C[C@@H](O)CN6)CC5)c(C)c4)nccn23)c(F)c1F [Example 248, [4-[[3-(2,3-difluoro-4-prop-2-ynoxy-phenyl)imidazo[1,2-a]pyrazin-8-yl]amino]-2-methyl-phenyl]-[4-[(2S,4R)-4-hydroxypyrrolidine-2-carbonyl]piperazin-1-yl]methanone]	74 nM		
CCc1cc(Nc2nccn3c(-c4ccc(OC)c(F)c4F)cnc23)ccc1C(=O)N1CC(OCCN)C1 [Example 585, (3-(2-aminoethoxy)azetidin-1-yl)(4-((3-(2,3-difluoro-4-methoxyphenyl)imidazo[1,2-a]pyrazin-8-yl)amino)-2-ethylphenyl)methanone formate]		94 nM	
COc1ccc(-c2cnc3c(Nc4ccc(C(=O)N5CCN(C(=O)[C@@H]6C[C@@H](O)CN6)CC5)c(C)c4)nccn23)cc1Cl [Example 92, (4-(4-((3-(3-chloro-4-methoxyphenyl)imidazo[1,2-a]pyrazin-8-yl)amino)-2-methylbenzoyl)piperazin-1-yl)((2S,4R)-4-hydroxypyrrolidin-2-yl)methanone hydrochloride]	98 nM		
COc1ccc(-c2cnc3c(Nc4ccc(C(=O)N5CCC(C(=O)N6CCN[C@@H]([C@@H](C)O)C6)CC5)c(C)c4)nccn23)c(F)c1F [Example 292, [4-[[3-(2,3-difluoro-4-methoxyphenyl)imidazo[1,2-a]pyrazin-8-yl]amino]-2-methylphenyl]-[4-[(3R)-3-[(1R)-1-hydroxyethyl]piperazine-1-carbonyl]piperidin-1-yl]methanone; hydrochloride]		123 nM	
COc1ccc(-c2cnc3c(Nc4ccc(C(=O)N5CCN(C(=O)[C@@H]6C[C@H](F)CN6)CC5)c(C)c4)nccn23)c(F)c1F [Example 83, (4-(4-((3-(2,3-difluoro-4-methoxyphenyl)imidazo[1,2-a]pyrazin-8-yl)amino)-2-methylbenzoyl)piperazin-1-yl)((2S,4S)-4-fluoropyrrolidin-2-yl)methanone hydrochloride]	85 nM		
COc1ccc(-c2cnc3c(Nc4ccc(C(=O)N5CCN(C(=O)[C@H]6NC[C@H](O)[C@@H]6O)CC5)c(C)c4)nccn23)c(F)c1F [Example 234, (4-(4-((3-(2,3-difluoro-4-methoxyphenyl)imida-zo[1,2-a]pyrazin-8-yl)amino)-2-methylbenzoyl)piper-azin-1-yl)((2S,3R,4S)-3,4-dihydroxypyrrolidin-2-yl)methanone]	133 nM		
COc1ccc(-c2cnc3c(Nc4ccc(C(=O)N5CCN(C(=O)[C@@H]6CC(C)(C)CN6)CC5)c(C)c4)nccn23)c(F)c1F [Example 76, (S)-(4-(4-((3-(2,3-difluoro-4-methoxyphenyl)imidazo[1,2-a]pyrazin-8-yl)amino)-2-methylbenzoyl)piperazin-1-yl)(4,4-dimethylpyrrolidin-2-yl)methanone hydrochloride]	91 nM		
CCc1cc(Nc2nccn3c(-c4ccc(OC(F)F)c(F)c4F)cnc23)ccc1C(=O)N1CCC(C(=O)N2CC3(CNC3)C2)CC1 [Example 591, (4-(2,6-diazaspiro[3.3]heptane-2-carbonyl)piperidin-1-yl)(4-((3-(4-(difluoromethoxy)-2,3-difluorophenyl)imidazo[1,2-a]pyrazin-8-yl)amino)-2-ethylphenyl)methanone 2,2,2-trifluoroacetate formate]		52 nM	
COc1ccc(-c2cnc3c(Nc4ccc(C(=O)N5CCN(C(=O)CC[C@H](NC(=O)[C@@H](N)CCCCN)C(=O)O)CC5)c(C)c4)nccn23)c(F)c1F [Example 531, (2S)-2-[[(2S)-2,6-diaminohexanoyl]amino]-5-[4-[4-[[3-(2,3-difluoro-4-methoxyphenyl)imidazo[1,2-a]pyrazin-8-yl]amino]-2-methylbenzoyl]piperazin-1-yl]-5-oxopentanoic acid; hydrochloride]		686 nM	
COc1ccc(-c2cnc3c(Nc4ccc(C(=O)N5CCC(CN)CC5)c(C)c4)nccn23)cc1 [Example 293, [4-(aminomethyl)piperidin-1-yl]-[4-[[3-(4-methoxyphenyl)imidazo[1,2-a]pyrazin-8-yl]amino]-2-methylphenyl]methanone]			IC90 [3]: 141 nM

Continued, in another order:

IC90 [2]	SMILES	IC90 [1]	further results
265 nM	COc1ccc(-c2cnc3c(Nc4ccc(C(=O)N5CCC(C(=O)NCC(O)CN6CCOC(C)C6)CC5)c(C)c4)nccn23)c(F)c1F (centres unmarked) [Example 571, 1-(4-((3-(2,3-difluoro-4-methoxyphenyl)imidazo[1,2-a]pyrazin-8-yl)amino)-2-methylbenzoyl)-N-(2-hydroxy-3-(2-methylmorpholino)propyl) piperidine-4-carboxamide]		
601 nM	CCc1cc(Nc2nccn3c(-c4ccc(OC)c(F)c4F)cnc23)ccc1C(=O)N1CCN(CCO[C@@H]2O[C@H](CO)[C@H](O)[C@H](O)[C@H]2O)CC1 [Example 580, (4-((3-(2,3-difluoro-4-methoxyphenyl)imidazo[1,2-a]pyrazin-8-yl)amino)-2-ethylphenyl)(4-(2-(((2R,3R,4S,5R,6R)-3,4,5-trihydroxy-6-(hydroxymethyl)tetrahydro-2H-pyran-2-yl)oxy)ethyl)piperazin-1-yl)methanone]		
330 nM	COc1ccc(-c2cnc3c(Nc4ccc(C(=O)N5CCN(C(=O)[C@]67CNCC[C@H]6OC(C)(C)O7)CC5)c(C)c4)nccn23)c(F)c1F (stereo in doubt) [Example 577, rel-(4-(4-((3-(2,3-difluoro-4-methoxyphenyl)imidazo[1,2-a]pyrazin-8-yl)amino)-2-methylbenzoyl)piperazin-1-yl)((3aR,7aS)-2,2-dimethyltetrahydro-[1,3]dioxolo[4,5-c]pyridin-3a(4H)-yl)methanone]		
273 nM	COc1ccc(-c2cnc3c(Nc4ccc(C(=O)N5CCN(C(=O)[C@@H]6C[C@@](O)(C(F)(F)F)CN6)CC5)c(C)c4)nccn23)c(F)c1F [Example 582, (4-(4-((3-(2,3-difluoro-4-methoxyphenyl)imidazo[1,2-a]pyrazin-8-yl)amino)-2-methylbenzoyl)piperazin-1-yl)((2S,4S)-4-hydroxy-4-(trifluoromethyl)pyrrolidin-2-yl)methanone hydrochloride]		
245 nM	COc1ccc(-c2cnc3c(Nc4ccc(C(=O)N5CCC(C(=O)NCC(O)Cn6cccn6)CC5)c(C)c4)nccn23)c(F)c1F (centres unmarked) [Example 570, 1-(4-((3-(2,3-difluoro-4-methoxyphenyl)imidazo[1,2-a]pyrazin-8-yl)amino)-2-methylbenzoyl)-N-(2-hydroxy-3-(1H-pyrazol-1-yl)propyl)piperidine-4-carboxamide]		
418 nM	Cc1cc(Nc2nccn3c(-c4ccc(OC(F)F)cc4)cnc23)ccc1C(=O)N1CCN(C(=O)OC(C)(C)C)CC1 [Example 556, tert-butyl 4-(4-((3-(4-(difluoromethoxy)phenyl)imidazo [1,2-a]pyrazin-8-yl)amino)-2-methylbenzoyl)piperazine-1-carboxylate]		
